Source: US12241902B2, “Probes for detection of copper” (The Regents of the University of California, priority 2019, dated 2025)

Legend:
[1] = Metal ion selectivity of the ratiometric fluorescence change
Procedure: (§1) (A) Changes in corrected emission spectra of FCP-1 (5 μM) in aqueous buffer solution. […] (B) Corrected emission spectra of FCP-1 measured at various concentrations. […] (D) Changes in F526/F576 ratio of FCP-1 (5 μM) towards various biologically relevant metal ions, as well as cobalt(II)-containing vitamin B12. Black bars represent the ratiometric emission response observed upon addition of competing metal ions (1 mM for Na^+, K^+, Mg^2+ and Ca^2+, and 10 μM for all the other d-block metal ions as well vitamin B12) after 15 min. Red bars represent the ratiometric emission response upon subsequent addition of 10 μM of Cu(I) after 15 min. (E) Emission spectra and (F) F526/F576 emission ratio of FCP-1 (5 μM) with addition of Cu(II) (10 μM), Cu(II) (10 μM)+GSH (2 mM), or Cu(I) (10 μM)+GSH (2 mM) after 15 min. All spectra were acquired in aqueous buffer (PBS with 2 mM GSH and 40 vol % PEG-400) with λex=458 nm.
UV-vis absorption and emission measurements. FCP-1 stock solution in DMSO (5 mM) was prepared, aliquoted and stored at […]. For each spectroscopic measurement, a fresh aliquot was diluted to 500 μM by DMSO and further diluted with PBS containing 2 mM GSH/PEG-400 mixture (3:2, v/v) to prepare the sensing solution with 5 μM of FCP-1. The sensing solution was pre-incubated in a water bath at 37° C., and then [Cu(CH3CN)](PF6) in MeCN or other metal ions in H2O was added. The solution mixture was kept at 37° C. and taken out for UV-vis absorption or emission spectroscopic measurements in quartz cuvette at predetermined time intervals. Emission spectra were corrected using coumarin 153 as secondary emission standard (4). Photoluminescence quantum yield (PLQY) was determined using fluorescein in 0.1 M NaOH solution (0.95; λex=496 nm). FRET efficiency from the fluorescein moiety to rhodamine moiety of FCP-1 was estimated by [1−(PLQY of FCP-1/PLQY of FL-TPA)].
This oxidation state-specificity is important for the applications of FCP-1 in imaging dynamic changes in intracellular labile Cu(I) pools under redox stress and oncogenic transformation.

[2] = system: labile Cu(I) in Ctr1^+/+ MEFs; assay: Confocal fluorescence imaging of labile Cu(I) in Ctr1+/+ MEFs; format: cell-based, mouse
Procedure: (§2) (A) Confocal fluorescence microscopy images of Ctr1^+/+ MEFs and Ctr1^−/− MEFs treated with solvent control, CuCl2 (100 or 300 μM) or BCS (500 μM) in complete medium for 8 h, washed with complete medium and PBS, incubated with FCP-1 (5 μM) in DPBS for 45 min, and then imaged with λex=458 nm. (B) Average cellular ratiometric emission ratios of FCP-1, Fgreen/Forange, as determined from experiments performed in triplicate. (C) Total cellular ^63Cu levels were determined by ICP-MS experiments (with normalization of different cell numbers by total cellular ^31P level). (D) Confocal fluorescence microscopy images of Ctr1^+/+ MEFs and Ctr1^−/− MEFs incubated with FL-TPA (5 μM) in DPBS for 45 min. The cells were then imaged with λex=488 nm. (E) Average cellular fluorescence intensity of FL-TPA, FFL-TPA, determined from experiments performed in triplicate with λex=488 nm. Error bars denote SD (n=3). *p<0.05, **p<0.01 and ***p<0.001.
(§3) Cell culture. Following cell cultures were grown: Human embryonic kidney (HEK 293T) cells were maintained in Dulbecco's Modified Eagle Medium (DMEM) supplemented with 10 vol % fetal bovine serum (FBS), 1 vol % GlutaMax (Gibco) and 1 vol % non-essential amino acids (NEAA, Gibco). Ctrl1^+/+ and Ctr1^−/− MEF cells were maintained in DMEM with 10 vol % FBS, 1 vol % non-essential amino acids, 1 vol % sodium pyruvate and 0.1 vol % 2-mercaptoethanol or DMEM supplemented with 10 vol % FBS and 1× Penicillin-Streptomycin. Human cervical epithelial carcinoma (HeLa) was maintained in DMEM medium supplemented with 1 vol % GlutaMAX and 10 vol % FBS. All cells were incubated in 5% CO2 humidified air and subcultured at 80% confluence.
Confocal fluorescence microscopy imaging. For confocal fluorescence imaging experiments of HEK293T, MEF Ctr1^+/+ and Ctr1^−/− and HeLa cells, the cells were plated on 8-well Lab Tek borosilicate chambered coverglass slides (Nunc), and allowed to grow to ca. 60% confluency before performing the cell imaging experiments. The confocal imaging was performed with a Zeiss laser scanning microscope 710 with 20× or 63× oil-immersion objective lens using Zen 2009 software (Carl Zeiss). FCP-1 was excited with 458 nm with an Ar laser, and the emissions were collected using a META detector between 465 and 541 nm (Fgreen), and between 559 and 710 nm (Forange). DRAQ-5 was excited with a 633 nm He Ne laser, and its emission was collected using a META detector between 661 and 759 nm. Image analysis was performed using ImageJ, with ratiometric images generated by the Ratio Plus plugin of ImageJ. For quantification, a threshold value was set as background and the average intensity of the whole image was measured by ImageJ. All experiments were performed in triplicate, and statistical analyses were performed with a two-tailed Student's t-test (MS excel).
Having established that FCP-1 is sensitive to endogenous pools of labile Cu(I) under basal conditions and can respond to changes in labile Cu(I) pools upon pharmacological copper supplementation and/or depletion, the application of FCP-1 to visualize alterations in endogenous labile Cu(I) pools through genetic manipulation was explored. To this end, comparative FCP-1 imaging was performed in mouse embryonic fibroblast cells that are either Cu-replete (Ctr1^+/+ MEFs) or Cu-deficient (Ctr1^−/− MEFs) through knockout of the high-affinity copper transporter CTR1 (64-66).
Complementary ICP-MS measurements confirm that total copper levels in Ctr1^−/− MEFs are lower than Ctr1^+/+ MEFs (FIG. 12C). […]

[3] = system: labile Cu(I) in Ctr1^−/− MEFs; assay: Confocal fluorescence imaging of labile Cu(I) in Ctr1-/- MEFs; format: cell-based, mouse
Procedure: as §2
as §3, with “All cells were incubated in 5% CO2 humidified air and subcultured at 80% confluence.” left out
Confocal fluorescence microscopy imaging. For confocal fluorescence imaging experiments of HEK293T, MEF Ctr1^+/+ and Ctr1^−/− and HeLa cells, the cells were plated on 8-well Lab Tek borosilicate chambered coverglass slides (Nunc), and allowed to grow to ca. 60% confluency before performing the cell imaging experiments. […] For quantification, a threshold value was set as background and the average intensity of the whole image was measured by ImageJ. […]

[4] = Oxidation state specificity of the ratiometric response
Procedure: as §1
UV-vis absorption and emission measurements. FCP-1 stock solution in DMSO (5 mM) was prepared, aliquoted and stored at […]. For each spectroscopic measurement, a fresh aliquot was diluted to 500 μM by DMSO and further diluted with PBS containing 2 mM GSH/PEG-400 mixture (3:2, v/v) to prepare the sensing solution with 5 μM of FCP-1. […] Photoluminescence quantum yield (PLQY) was determined using fluorescein in 0.1 M NaOH solution (0.95; λex=496 nm). […]

CC[N+](CC)=c1ccc2c(-c3ccccc3C(=O)O)c3ccc(N4CCN(Cc5cccc(CN(Cc6ccccn6)Cc6cccc(COc7ccc8c(-c9ccccc9C(=O)OC)c9ccc(=O)cc-9oc8c7)n6)n5)CC4)cc3oc-2c1 [FCP-1]
change in ratiometric signal with cobalamin (vitamin B12) ([1]; 10 μM cobalamin): no significant changes in ratiometric signal
selectivity of ratiometric fluorescence change ([1]; 1 mM Na+, K+, Mg2+, Ca2+, 10 μM d-block metal ions, 15 min): selective toward Cu(I) over other biologically relevant metal ions
change of fluorescence with free Co(II) ([1]; Co(II) 10 μM): altered FCP-1 fluorescence modestly
detection of Cu(I) in competitive experiments ([1]; solutions containing other biologically relevant metal ions, then 10 μM Cu(I)): ability of FCP-1 to detect Cu(I)
cellular viability by nuclear stain DRAQ5 ([2]; Ctr1+/+ MEFs (FIG. 13)): cellular viability was maintained
Fgreen/Forange ratio after BCS ([2]; Ctr1+/+ MEFs, BCS): reduction in Fgreen/Forange ratio
Fgreen/Forange ratio after CuCl2 ([2]; Ctr1+/+ MEFs, varying concentrations of CuCl2): dose-dependent increase
Fgreen/Forange ratio, Ctr1+/+ MEFs compared to Ctr1−/− MEFs ([2]; basal, FCP-1 5 μM, p<0.01): higher Fgreen/Forange ratios
cellular viability by nuclear stain DRAQ5 ([3]; Ctr1−/− MEFs (FIG. 14)): cellular viability was maintained
Fgreen/Forange ratio after CuCl2 ([3]; Ctr1−/− MEFs incubated with CuCl2): no statistically significant changes
Fgreen/Forange ratio after BCS ([3]; Ctr1−/− MEFs, BCS (500 μM)): reduction in Fgreen/Forange ratio
emission spectra and F526/F576 ratio with Cu(II) and excess glutathione ([4]; Cu(II) 10 μM + GSH 2 mM, compared with Cu(I) 10 μM + GSH 2 mM): identical to that obtained by treating FCP-1 with Cu(I) and excess glutathione
ratiometric response to Cu(II) ([4]; Cu(II) 10 μM, 15 min): does not respond ratiometrically
